Test results taken from patent US20200277571A1, “METHOD FOR AMPLIFYING CONE PHOTORECEPTORS OR ROD PHOTORECEPTORS USING DORSALIZATION SIGNAL TRANSMITTER OR VENTRALIZATION SIGNAL TRANSMITTER” (RIKEN, priority 2017, published 2020).

How the values were obtained:
[1] = test system: OTX2-positive and OC2-positive cells in retinal tissue produced from human ES cells; test: Immunostaining for OTX2 and OC2 of retinal tissue, day 70-75, image analysis (Image J); assay type: cell-based; conditions: for number of OTX2-positive cells versus Control (NUC) group / OC2-positive cells: 0.15 nM BMP4, 500 nM Cyclopamine-KAAD; for number of OTX2-positive cells versus Control (NUC) group: 100 nM LDN193189, 100 nM SAG from day 22; for OC2-positive cells: 100 nM LDN193189 or 100 nM SAG from day 22, Control (NUC) about 26.4%; for expression level (intensity of immunostained fluorescence) of OC2 as compared to the Control (NUC) group, on average: 0.15 nM BMP4 or 500 nM Cyclopamine-KAAD from day 22
Description: Here, the proportion of the number of OC2-positive cells contained in the neural retinal tissue can be determined by those of ordinary skill in the art by performing conventionally possible immunostaining and the like by using an anti OC2 antibody, DAPI and the like, measuring the number of OC2-positive cells, the number of DAPI-positive cells and the like, and identifying the ratio thereof contained in a neural retinal tissue. The expression level of OC2 protein can be determined by those of ordinary skill in the art by performing conventionally possible immunostaining and the like by using an anti OC2 antibody, DAPI and the like, and analyzing the region stained by an anti OC2 antibody by using image analysis software such as Image J and the like to identify the signal intensity of OC2-positive cells. Alternatively, the proportion of the number of OC2-positive cells contained in a neural retinal tissue and/or the OC2 protein expression level of OC2-positive cell may be identified by analysis using conventional flow cytometry using an antibody against OC2 protein.
A cell aggregate containing a retinal tissue was prepared by the method described in “Kuwahara et al. Nat Commun 2015, 19(6), 6286-” after modification in part. That is, the aforementioned cultured ES cells were individually dispersed using TrypLE Express (Invitrogen), and the individually dispersed human ES cells were suspended in 100 μL of a serum-free medium in a cell non-adhesive 96 well plate (SUMILON spheroid plate, SUMITOMO BAKELITE CO., LTD.) at 9×10^3 cells per well to allow rapid formation of aggregates, after which they were cultured at 37° C., 5% CO2. As the serum-free medium therefor, a serum-free medium obtained by adding 10% KSR, 450 μM 1-monothioglycerol, 1× Chemically defined lipid concentrate, 5 mg/mL BSA, 20 μM Y27632 to a 1:1 mixture of F-12 medium and IMDM medium was used. At 6 days after the start of suspension culture, BMP4 at a final concentration of 1.5 nM was added and suspension culture was continued. A half amount of the culture medium in the well was exchanged with the above-mentioned medium not supplemented with a BMP signal transduction pathway agonist every 3 or 4 days. A cell aggregate containing a retinal tissue at day 18 from the start of suspension culture was cultured in suspension in a serum-free medium (DMEM/F12 medium supplemented with 1% N2 supplement) containing 3 μM CHIR99021 and 5 μM SU5402 for 4 days, namely, up to day 22 from the start of suspension culture. Thereafter, suspension culture of the cell aggregate containing the retinal tissue was continued until it was appropriately used for analysis and the like. As the culture medium during this period, serum-containing media shown in the following to [3] were used and the cell aggregate was cultured under 5% CO2 conditions.
[1] day 22 to day 38 from the start of suspension culture; DMEM/F12 medium supplemented with 10% fetal calf serum, 1% N2 supplement, and 100 μM taurine. day 38 to day 60 from the start of suspension culture; a 1:3 mixed medium of DMEM/F12 medium supplemented with 10% fetal calf serum, 1% N2 supplement, and 100 μM taurine, and Neurobasal medium supplemented with 10% fetal calf serum, 2% B27 supplement, and 100 μM taurine. after day 60 from the start of suspension culture; Neurobasal medium supplemented with 10% fetal calf serum, 2% B27 supplement, and 100 μM taurine.
[1] Control group (FIG. 2a, f, k, p); according to the method described in Example 1, culture was performed up to day 70 or day 75 from the start of suspension culture and without addition. [2]+BMP group (FIG. 2b, g, 1, q); 0.15 nM BMP4 was added from day 22 from the start of suspension culture to completion of suspension culture, and cultured up to day 70 or day 75 from the start of suspension culture. […]

ALDH1A3 = test: Immunostaining for ALDH1A3 (ventral marker) of retinal tissue; assay type: cell-based, human; conditions: day 75, 0.15 nM BMP4, 100 nM LDN193189, 100 nM SAG from day 22
Description: [1] Control group (FIG. 2a, f, k, p); according to the method described in Example 1, culture was performed up to day 70 or day 75 from the start of suspension culture and without addition. [2]+BMP group (FIG. 2b, g, 1, q); 0.15 nM BMP4 was added from day 22 from the start of suspension culture to completion of suspension culture, and cultured up to day 70 or day 75 from the start of suspension culture. [3]+Cyclopamine-KAAD group (FIG. 2c, h, m, r); 500 nM Cyclopamine-KAAD was added from day 22 from the start of suspension culture to completion of the suspension culture, and cultured up to day 70 or day 75 from the start of suspension culture. [4]+LDN193189 group (FIG. 2d, i, n, s); 100 nM LDN193189 was added from day 22 from the start of suspension culture to completion of the suspension culture, and cultured up to day 70 or day 75 from the start of suspension culture. [5]+SAG group (FIG. 2e, j, o, t); 100 nM SAG was added from day 22 from the start of suspension culture to completion of the suspension culture, and cultured up to day 70 or day 75 from the start of suspension culture.
The retinal tissues produced by the method described in Example 2 were fixed with 4% para-formaldehyde, cryosections were prepared, and immunostaining for GFP (fluorescence of GFP variant incorporated in CRX gene locus can be identified. That is, cells similar to CRX-positive cell can be identified), ALDH1A3, or DAPI staining for staining the nucleus was performed. The retinal tissue used was one on day 75 from the start of suspension culture similar to Example 2. As a result, an ALDH1A3-positive region considered to be a ventral region in the Control (NUC) group was found in the retinal tissue, and in such region, particularly GFP-positive cells, i.e., CRX::Venus-positive cells expressing CRX, were less. In +BMP4 group, overall expression of ALDH1A3 was suppressed as compared to the Control (NUC) group, and CRX::Venus-positive cells increased along therewith.

Row | Compound | number of OTX2-positive cells versus Control (NUC) group [1] | OC2-positive cells [1] | expression level (intensity of immunostained fluorescence) of OC2 as compared to the Control (NUC) group, on average [1] | ALDH1A3 expression / ALDH1A3-positive region versus Control (NUC) group (ALDH1A3)
1 | CC1=C2C[C@H]3[C@@H](CC=C4CC(=O)CC[C@@]43C)[C@@H]2CC[C@]12O[C@@H]1C[C@H](C)CN(CCNC(=O)CCCCCNC(=O)CCc3ccccc3)[C@H]1[C@H]2C [Cyclopamine-KAAD] | higher | ~16.7% | about 64% | 
2 | c1ccc2c(-c3cnn4cc(-c5ccc(N6CCNCC6)cc5)cnc34)ccnc2c1 [LDN193189, 4-[6-(4-piperazin-1-ylphenyl)pyrazolo[1,5-a]pyrimidin-3-yl]quinoline] | lower | ~35.1% |  | increased
3 | CNC1CCC(N(Cc2cccc(-c3ccncc3)c2)C(=O)c2sc3ccccc3c2Cl)CC1 (stereo not shown) [SAG] | lower | ~27.3% |  | increased
4 | BMP4: BMP protein; BMP signal transduction pathway agonist used as dorsalization signal transmitter | higher | about 16.0% | about 36% | suppressed
